This is an account of results in US4579861A, “Aryloxypropanolamine derivatives, pharmaceutical compositions and adrenegic thereof” (Pierrel S.p.A., priority 1983, dated 1986).

Structures are written as SMILES. Structures can show the parent of a compound that is named as a salt. Where two headings read alike, the source gives them in different places.

One series deals with T1, β1 (guinea pig atria) (Cavia porcellus, UniProt H0W3H1).
T1 construct: The atria and the trachea have been suspended respectively in Ringer oxygenated solution; from tissue; host or cells: isolated atria of Hartley albino guinea pigs
Description: In vitro β-blocking activity, guinea pig atria stimulated with isopropylnoradrenaline (INA). The class given is cell-based, guinea pig (Hartley albino). The note with it: INA 10^-8 M, 32° C. As for the experimental part: (§1) Hartley albino guinea pigs of 450 g average weight were used. The atria and the trachea have been suspended respectively in Ringer oxygenated solution at 32° C., and in Krebs carboxygenated solution medicated with pilocarpine, at 37° C.
(§2) After 30' minute stabilization the samples were stimulated with a single submaximal concentration of isopropylnoradrenaline (INA) (10^-8 M for the atria and 10^-7 M for the trachea) in the absence or presence of different antagonist's concentrations.
(§3) The percent inhibitions of the chronotropic and positive inotropic effect (atria) and of relaxation (trachea) were evaluated and the IC50 values were calculated therefrom.

Another series in a line: in vivo. The conditions noted are these: mouse, iv. As for the experimental part: Charles River male CD1 mice, weighing 25 g were used. The administration volume of the compounds, solubilized in H2 O and exceptionally in dimethylsulfoxide, was 0.02 ml/10 g of body weight.
A further series addresses β2 (guinea pig trachea) (Cavia porcellus, UniProt Q8K4Z4). In words: cell-based. More on the design: species or system guinea pig (Hartley albino). As for the experimental part: as §1, §2, §3
Another series relates to β1. Description: β-blocking activity on conscious rats, i.v. (inhibition of INA positive chronotropic effect). The class given is in vivo, rat (male Wistar). The note with it: 2 rats each compound. The source says:
The arterial pressure (AP) and heart rate (HR) were graphically recorded on a type R. multichannel Beckman poligraph.

In a further series the test system is β1 receptors. Description: Inhibition of 3H-DHA (dihydroalprenolol) binding to β1 receptors. The conditions noted are these: for cardioselectivity degree compared with reference compounds: 3H-DHA binding, in words; for IC50: read-out: IC50 β1 (inhibition of H^3-DHA binding), [3H]dihydroalprenolol binding, β1.
The test system of the next series is β2 receptors. Description: Inhibition of 3H-DHA (dihydroalprenolol) binding to β2 receptors. The note with it: for affinity for the β2 receptors compared with β1 receptors: 3H-DHA binding, in words; for IC50: read-out: IC50 β2 (inhibition of H^3-DHA binding), [3H]dihydroalprenolol binding, β2.
[1] abbreviates: β-Blocking activity in vitro IC50, Atria chronotropism × 10^-7, guinea pig atria, β1, chronotropic effect.
The mark [2] stands for this setting: β-Blocking activity in vitro IC50, Atria inotropism × 10^-7, guinea pig atria, β1, positive inotropic effect.
Where [3] appears, read: guinea pig atria, β1, chronotropic effect, read-out: β-Blocking activity in vitro IC50, Atria chronotropism × 10^-7.
Setting [4] is: guinea pig atria, β1, positive inotropic effect, read-out: β-Blocking activity in vitro IC50, Atria inotropism × 10^-7.
The mark [5] stands for this setting: guinea pig trachea, β2, relaxation, INA 10^-7 M, 37° C., pilocarpine, read-out: β-Blocking activity in vitro IC50, Trachea β2 × 10^-7.
Setting [6] is: 3 mg/kg i.v. (Ia-c), could be undervalued by reflex tachycardia.
[7] abbreviates: read-out: β-Blocking activity in vitro IC50, Trachea β2 × 10^-7.
[8] abbreviates: 1 mg/kg i.v., could be undervalued by reflex tachycardia.

T1 sequence (H0W3H1 1-470): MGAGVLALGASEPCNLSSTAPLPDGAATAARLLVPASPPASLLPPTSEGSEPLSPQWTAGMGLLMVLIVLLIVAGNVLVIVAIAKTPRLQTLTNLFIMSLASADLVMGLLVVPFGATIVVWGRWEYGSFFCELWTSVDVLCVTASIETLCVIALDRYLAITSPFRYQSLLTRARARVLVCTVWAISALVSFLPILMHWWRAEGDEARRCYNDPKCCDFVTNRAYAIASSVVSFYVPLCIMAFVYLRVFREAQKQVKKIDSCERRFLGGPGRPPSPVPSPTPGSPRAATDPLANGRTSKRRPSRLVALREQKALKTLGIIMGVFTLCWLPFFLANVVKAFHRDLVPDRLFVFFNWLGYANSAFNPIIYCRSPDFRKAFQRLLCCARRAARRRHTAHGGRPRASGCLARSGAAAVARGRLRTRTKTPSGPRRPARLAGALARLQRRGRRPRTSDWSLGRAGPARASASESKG
β2 (guinea pig trachea), sequence (Q8K4Z4 whole entry): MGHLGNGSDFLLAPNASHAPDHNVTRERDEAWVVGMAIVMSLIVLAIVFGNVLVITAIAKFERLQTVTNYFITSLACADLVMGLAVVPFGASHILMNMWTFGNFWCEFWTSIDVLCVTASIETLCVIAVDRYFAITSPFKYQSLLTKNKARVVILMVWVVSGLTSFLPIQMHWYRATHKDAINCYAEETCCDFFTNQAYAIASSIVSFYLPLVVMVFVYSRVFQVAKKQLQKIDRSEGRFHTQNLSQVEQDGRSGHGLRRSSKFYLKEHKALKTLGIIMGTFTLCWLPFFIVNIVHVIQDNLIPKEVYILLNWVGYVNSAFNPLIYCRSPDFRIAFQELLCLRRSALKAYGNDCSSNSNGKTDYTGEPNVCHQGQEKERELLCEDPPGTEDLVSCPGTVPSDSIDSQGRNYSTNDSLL

As to `CC(C)NCC(O)COc1ccc(CC(N)=O)cc1` (stereo not shown) [Atenolol, atenolol, reference compound], the IC50 against β1 (guinea pig atria) (setting [1]) worked out at 1500 nM; against β1 (guinea pig atria) (setting [2]), 1700 nM.

The compound `O=C1CN(c2ccccc2)C(=O)N1CCNCC(O)COc1ccccc1` (stereo not shown) [Ia, 1-Phenyl-3-{[2-(3-phenoxy-2-hydroxy)propylamino]ethyl}hydantoin hydrochloride] showed an LD50 at 168 h in “in vivo” of 96 mg/kg. Also, the half-inhibitory concentration (IC50) at β1 (guinea pig atria) (setting [3]) is 140 nM; on β1 (guinea pig atria) (setting [4]), 430 nM; on β2 (guinea pig trachea) (setting [5]), 6700 nM. The “Vivo inhib. %, conscious rat i.v., chronotropism β1” value (“Vivo inhib. %” for short) in the series with β1 (setting [6]) stood at 59%.

`Cc1cccc(OCC(O)CNCCN2C(=O)CN(c3ccccc3)C2=O)c1` (stereo not shown) [Ib] returned an LD50 at 168 h in “in vivo” of 69 mg/kg. Also, the IC50 on β1 (guinea pig atria) (setting [3]) is 430 nM; at β1 (guinea pig atria) (setting [4]), 940 nM; on β2 (guinea pig trachea) (setting [5]) it was 6200 nM. Moreover, the “Vivo inhib. %” value in the series with β1 (setting [6]) came to 50%.

Take `N#Cc1ccccc1OC[C@H](O)CNCCN1C(=O)CN(c2ccccc2)C1=O` [Ic(R), (R)-(+)-1-Phenyl-3-{2-[3-(2-cyanophenoxy)-2-hydroxypropyl]aminoethyl}hydantoin hydrochloride]: the values for the IC50 on β1 (guinea pig atria) (setting [3]), on β1 (guinea pig atria) (setting [4]) and on β2 (guinea pig trachea) (setting [7]) were 1400 nM, 3400 nM and more than 100000 nM, respectively.

Take `N#Cc1ccccc1OC[C@@H](O)CNCCN1C(=O)CN(c2ccccc2)C1=O` [Ic(S), (S)-(-)-1-Phenyl-3-{2-[3-(2-cyanophenoxy)-2-hydroxypropyl]aminoethyl}hydantoin hydrochloride]: the 50% inhibitory concentration (IC50) at β1 (guinea pig atria) (setting [3]) came out at 29 nM; on β1 (guinea pig atria) (setting [4]) it was 60 nM; on β2 (guinea pig trachea) (setting [7]), 600 nM.

In “in vivo”, `N#Cc1ccccc1OCC(O)CNCCN1C(=O)CN(c2ccccc2)C1=O` (stereo not shown) [Ic] had an LD50 at 168 h of 99 mg/kg. The IC50 came to 120 nM at β1 (guinea pig atria) (setting [3]); 90 nM at β1 (guinea pig atria) (setting [4]); 2000 nM at β2 (guinea pig trachea) (setting [5]); 6.7 nM on β1 receptors; 9300 nM on β2 receptors. Moreover, the “Vivo inhib. %” value in the series on β1 (setting [6]) is reported as 67%. For the same compound, the “cardioselectivity degree compared with reference compounds” value with β1 receptors is reported as “remarkably higher cardioselectivity degree than that of the reference compounds”. Further, the “affinity for the β2 receptors compared with β1 receptors” value with β2 receptors is listed as “remarkably lower than the one shown for β1 receptors”.

`O=C1CN(c2ccc(Cl)cc2)C(=O)N1CCNCC(O)COc1ccccc1` (stereo not shown) [Id] returned a 50% lethal dose (LD50) at 168 h in “in vivo” of 45 mg/kg. The IC50 at β1 (guinea pig atria) (setting [3]) was 770 nM; at β1 (guinea pig atria) (setting [4]), 1200 nM; on β2 (guinea pig trachea) (setting [5]) it was more than 10000 nM. In addition, the “Vivo inhib. %” value in the series on β1 (setting [8]) is reported as 18%.

`Cc1cccc(OCC(O)CNCCN2C(=O)CN(c3ccc(Cl)cc3)C2=O)c1` (stereo not shown) [Ie] had an LD50 at 168 h in “in vivo” of 25 mg/kg. Further, the half-inhibitory concentration (IC50) at β1 (guinea pig atria) (setting [3]), on β1 (guinea pig atria) (setting [4]) and at β2 (guinea pig trachea) (setting [5]) was more than 10000 nM each time. The “Vivo inhib. %” value in the series on β1 (setting [8]) is on record as 19%.

On to `N#Cc1ccccc1OCC(O)CNCCN1C(=O)CN(c2ccc(Cl)cc2)C1=O` (stereo not shown) [If], for which the median lethal dose (LD50) at 168 h in “in vivo” is 70 mg/kg. For the same compound, the 50% inhibitory concentration (IC50) at β1 (guinea pig atria) (setting [3]) is 210 nM; at β1 (guinea pig atria) (setting [4]) it was 270 nM; at β2 (guinea pig trachea) (setting [5]), 6000 nM. In addition, the “Vivo inhib. %” value in the series on β1 (setting [8]) is given as 68%.

Compound `COc1ccc(N2CC(=O)N(CCNCC(O)COc3ccccc3)C2=O)cc1OC` (stereo not shown) [Ig] came in with an LD50 at 168 h in the series “in vivo” of 126 mg/kg. Moreover, the IC50 at β1 (guinea pig atria) (setting [3]) was 230 nM; at β1 (guinea pig atria) (setting [4]), 210 nM; on β2 (guinea pig trachea) (setting [5]), 1500 nM. The “Vivo inhib. %” value in the series with β1 (setting [8]) is reported as 53%.

On to `COc1ccc(N2CC(=O)N(CCNCC(O)COc3cccc(C)c3)C2=O)cc1OC` (stereo not shown) [Ih], for which, in “in vivo”, the LD50 at 168 h was 111 mg/kg. Besides, the IC50 stood at 460 nM at β1 (guinea pig atria) (setting [3]), 890 nM on β1 (guinea pig atria) (setting [4]) and 1100 nM at β2 (guinea pig trachea) (setting [5]). In the series on β1 (setting [8]), the “Vivo inhib. %” value was determined as 58%.

In the series “in vivo”, `COc1ccc(N2CC(=O)N(CCNCC(O)COc3ccccc3C#N)C2=O)cc1OC` (stereo not shown) [Ii] displayed a median lethal dose (LD50) at 168 h of 137 mg/kg. Further, the IC50 worked out at 82 nM at β1 (guinea pig atria) (setting [3]); 190 nM at β1 (guinea pig atria) (setting [4]); 430 nM at β2 (guinea pig trachea) (setting [5]); 9.2 nM at β1 receptors; 400 nM at β2 receptors. Besides, the “Vivo inhib. %” value in the series with β1 (setting [8]) came out at 70%. Moreover, the “cardioselectivity degree compared with reference compounds” value in the series with β1 receptors is recorded as “remarkably higher cardioselectivity degree than that of the reference compounds”. In addition, the “affinity for the β2 receptors compared with β1 receptors” value with β2 receptors is given as “remarkably lower than the one shown for β1 receptors”.

As for `COc1ccc(N2CC(=O)N(CCNCC(O)COc3ccccc3C#N)C2=O)cc1.Cl` (stereo not shown) [Il, 1-(4-Methoxyphenyl)-3-{2-[3-(2-cyanophenoxy)-2-hydroxypropyl]aminoethyl}hydantoin hydrochloride], the LD50 at 168 h in “in vivo” worked out at 135 mg/kg. The results for the IC50 at β1 (guinea pig atria) (setting [3]), on β1 (guinea pig atria) (setting [4]) and at β2 (guinea pig trachea) (setting [7]) were 45 nM, 96 nM and 360 nM, respectively.

As to `Cl.N#Cc1ccccc1OCC(O)CNCCN1C(=O)CN(c2ccc3c(c2)OCO3)C1=O` (stereo not shown) [Im, 1-(3,4-Methylendioxyphenyl)-3-{2-[3-(2-cyanophenoxy)-2-hydroxypropyl]aminoethyl}hydantoin hydrochloride], the LD50 at 168 h in “in vivo” came out at 132 mg/kg. For the same compound, the IC50 at β1 (guinea pig atria) (setting [3]) was found to be 41 nM; at β1 (guinea pig atria) (setting [4]), 63 nM; at β2 (guinea pig trachea) (setting [7]) it was 780 nM.

`COc1cccc(N2CC(=O)N(CCNCC(O)COc3ccccc3C#N)C2=O)c1` (stereo not shown) [In, 1-(3-Methoxyphenyl)-3-{2-[3-(2-cyanophenoxy)-2-hydroxypropyl]-aminoethyl}hydantoin hydrochloride]: the 50% lethal dose (LD50) at 168 h in “in vivo” turned out to be 120 mg/kg. For the same compound, the results for the IC50 on β1 (guinea pig atria) (setting [3]), at β1 (guinea pig atria) (setting [4]) and at β2 (guinea pig trachea) (setting [5]) were 76 nM, 130 nM and 640 nM, respectively.

Consider `Cc1ccccc1OCC(O)CNCCN1C(=O)CN(c2ccccc2)C1=O` (stereo not shown) [Io], for which the LD50 at 168 h in “in vivo” stood at 60 mg/kg. Besides, the half-inhibitory concentration (IC50) on β1 (guinea pig atria) (setting [3]) amounted to 115 nM; on β1 (guinea pig atria) (setting [4]), 150 nM; on β2 (guinea pig trachea) (setting [5]) it was 1600 nM.

In turn, `O=C1CN(c2ccccc2)C(=O)N1CCNCC(O)COc1ccccc1Cl` (stereo not shown) [Ip] showed a 50% lethal dose (LD50) at 168 h in the series “in vivo” of 80 mg/kg. The IC50 on β1 (guinea pig atria) (setting [3]) was found to be 54 nM; on β1 (guinea pig atria) (setting [4]), 115 nM; on β2 (guinea pig trachea) (setting [5]) it was 600 nM.

For the compound `CC(CCc1ccccc1)NCC(O)c1ccc(O)c(C(N)=O)c1` (stereo not shown) [Labetalol, labetalol, reference compound], the values for the half-maximal inhibitory concentration (IC50) against β1 (guinea pig atria) (setting [1]), at β1 (guinea pig atria) (setting [2]) and at β2 (guinea pig trachea) were 240 nM, 210 nM and 1100 nM, respectively. Also, the “Vivo inhib. %” value in the series on β1 (setting [8]) stood at 82%.

Take `COCCc1ccc(OCC(O)CNC(C)C)cc1` (stereo not shown) [Metoprolol, metoprolol, reference compound]: the 50% lethal dose (LD50) at 168 h in “in vivo” was 103 mg/kg. Besides, the “Vivo inhib. %” value in the series with β1 (setting [8]) worked out at 60%.

As to `CC(C)NCC(O)COc1cccc2ccccc12` (stereo not shown) [Propranolol, propranolol, reference compound], the “Vivo inhib. %” value in the series on β1 (0.1 mg/kg i.v. (propranolol)) is 73%.
